Source: patent publication US20260250269A1, “APOPTOSIS INHIBITOR SALTS FOR CANCER” (priority 2022, published 2026)

What was measured:
[1] = test system: Caspase-3; test: Caspase-3 protein expression in xenografted SU-DHL-10 tumor (Western blot); assay type: in vivo, mouse; conditions: Form A, single i.m. injection 11.2 mg/kg, 24 hours post dosing, versus vehicle
Method: The pamoate was administrated via single intramuscular (i.m.) injection to SU-DHL-10 xenografted mice to examine the effect of the pamoate on c-Myc expression level in tumor at the 24-hour time point post injection.
The pamoate was mixed with appropriate volume of vehicle solution (0.5% carboxymethylcellulose sodium (CMC-Na, viscosity 400-800 cps, CAS No. 9004-32-4, Sigma-Aldrich, USA) and 0.2% Tween-80 in 10 mM pH 7.4 phosphate buffer saline (PBS)) to get a uniform suspension after 15 min sonication, with final concentration of 5.6 mg/mL. The dose volume was determined by the mice′ body weight collected on the morning of dosing day, calculated by the formula: dose volume (2 mL/kg)×body weight.
Human diffuse large B cell lymphoma cell line SU-DHL-10 was obtained from Cobioer Biotechnology Co., Ltd (China). […]
The tumor was excised with scissors, resuspended in cold cell lysis buffer containing 20 mM Tris (pH7.5), 150 mM NaCl, 1% Triton X-100, 2 mM AEBSF, […] Aprotinin, 130 μM Bestatin, 14 μM E64, 10 μM Leupeptin, 5 mM sodium fluoride, 1 mM sodium pyrophosphate, 1 mM β-glycerophosphate and 1 mM sodium orthovanadate, and then homogenized with handheld homogenizer (Beyotime, China). […] Protein contents were determined using Micro BCA™ Protein Assay Kit (23235, Thermo Scientific, USA). […] Visualization was carried out using the Enhanced Chemi-luminescence Kit (Beyotime, China).

[2] = test system: SU-DHL-10 human diffuse large B cell lymphoma xenograft; test: Anti-tumor activity against SU-DHL-10 xenograft; assay type: in vivo, BALB/c nude mice
Method: For the monobromide continuous i.v. infusion group, the monobromide was dissolved with physiological saline to prepare 12.12 mg/mL clear solution.
For the monobromide i.p. injection group, the monobromide was dissolved with physiological saline to prepare 0.41 mg/mL clear solution. The dose volume was determined by the mice′ body weight collected on the morning of dosing day, calculated by the formula: dose volume (10 mL/kg)×body weight.
For the pamoate i.m. injection group, the pamoate salt was mixed with appropriate volume of vehicle solution (0.5% CMC-Na (viscosity 400-800 cps, CAS No. 9004-32-4), 0.2% Tween-80 in 10 mM pH 7.4 PBS saline) to get a uniform suspension after 15 min sonication, with final concentration of 5.6 mg/mL, similar to the procedure described in Example 14. The dose volume was determined by the mice′ body weight collected on the morning of dosing day, calculated by the formula: dose volume (2 mL/kg)×body weight.
Human diffuse large B cell lymphoma cell line SU-DHL-10 was obtained from Cobioer Biotechnology Co., Ltd (China). The cells were cultured at 37° C. with 5% CO2 in RPMI-1640 (Hyclone, USA) supplemented with 10% heat inactivated fetal bovine serum (Gibco, USA) and 1% GlutaMAX (Gibco, USA). The cells were collected, suspended in PBS at 2×10^8 cells/mL, and then mixed with the equivalent volume of Matrigel® Basement Membrane Matrix (Corning, USA).
Six-week-old female BALB/c-nude mice were purchased from SPF Biotechnology Co., Ltd. (Beijing, China). They were maintained on a standard diet and water throughout the experiments under specific pathogen-free conditions. The cells were cultured in vitro and 0.1×10^8 cells/0.1 mL/mouse were grafted subcutaneously into the flank of NOD-SCID (NVSG) mice (Beijing Viewsolid Biotech Co. LTD), 6-week-old. When the tumor reached about 1 cm in diameter, tumor-bearing mice were sacrificed and tumors were removed and sliced into small fragments (approximately 3×3×3 mm^3/fragment) and re-inoculated into BALB/c nude mice. The mice with a tumor volume (length×width^2×0.5) of 99.28 to 247.10 mm^3 were divided into four groups randomly, using Study Director Software (Studylog Systems, Inc, Version 3.1.399.22, USA) to minimize intragroup and intergroup tumor volume variation.
The first day of administration was designated day 0, and observation continued until day 35. Each group was treated as follows (Table 15).
The vehicle control group received i.m. injection of vehicle solution on day 0, 7 and 14 (Group 1). For 21-day continuous i.v. infusion, an osmotic pump containing the monobromide was implanted in the dorsum of each animal while under anesthesia on day 0, with daily dose of […], approximately 1.6 mg/kg/day (Group 2). The monobromide i.p. injection group was administrated referring to FIVE-DAY-ON, TWO-DAY-OFF procedure on day 0-4, 7-11 and 14-18 (Group 3) per Minoda et. al, Antitumor effect of YM155, a novel small-molecule survivin suppressant, via mitochondrial apoptosis in human MFH/UPS, International Journal of Oncology, 2015, 47:891-899. For the pamoate i.m. injection group, drug suspension was administrated once per week at 11.2 mg/kg, approximately 7 times daily dosage of the monobromide i.v. infusion group, on day 0, 7 and 14 (Group 4).

[3] = pH of about 7.4
[4] = Body weight in SU-DHL-10 xenografted mice; conditions: for Mean Body Weight ± SEM: Group 4: Form A, 11.2 mg/kg i.m. Day 0, 7, 14
[5] = Photostability test (ICH Option 1, ID65 light)
Method: Purity via HPLC, XRPD, and appearance inspection were performed before and after light exposure to determine photostability of the two compounds.
Light source—ICH Option 1 light source standard was adopted. ID65 light, equivalent indoor indirect daylight standard, with 250 W/m^2 light source intensity was used.
Total light exposure and light exposure time−total light exposure was set to 1.44 million lux light quantity (1000 lux×24 h×60 d=1,440,000 lux light quantity). Light stability testing box with ID65 light source of 250 W/m^2 intensity was adopted. According to ICH Option 1 standard, 21.8 hours light exposure could reach 1.2 million lux light quantity. Therefore, 26.2 hours light exposure is needed to reach 1.44 million lux quantity.
Testing—Accurately weight 0.5 g of the monobromide and the pamoate, place in petri dishes (covered with clear wrap film) and spread into a layer no more than 3 mm thickness, separately. Samples were put into light stability testing box, and received total amount of light exposure not less than 1.44 million lux light quantity (ID65 light, 250 W/m^2, 26.2 hours, 25° C., 60% relative humidity). After light exposure, samples were removed for characterization, including appearance inspection, XRPD and purity via HPLC.

[6] = Group 4: Form A, 11.2 mg/kg i.m. Day 0, 7, 14, Day 21
[7] = Group 4: Form A, 11.2 mg/kg i.m. Day 0, 7, 14, Day 35
[8] = ID65 light, 250 W/m^2, 25° C./60% RH (ICH Option 1), 26.2 hours
[9] = Initial, irradiation time 0 hours

COCCn1c2c([n+](Cc3cnccn3)c1C)C(=O)c1ccccc1C2=O.COCCn1c2c([n+](Cc3cnccn3)c1C)C(=O)c1ccccc1C2=O.O=C([O-])c1cc2ccccc2c(Cc2c(O)c(C(=O)[O-])cc3ccccc23)c1O [pamoate salt]
Cleaved Caspase-3 expression in tumors [1]: increased
Full length Caspase-3 expression in tumors [1]: decreased
Mean Tumor Volume ± SEM ([2]; Group 4: Form A, 11.2 mg/kg i.m. Day 0, 7, 14, Day 0): 151.26 ± 23.65 mm^3
Mean Tumor Volume ± SEM ([2]; Group 4: Form A, 11.2 mg/kg i.m. Day 0, 7, 14, Day 7): 0.00 ± 0.00 mm^3
Antitumor Activity, percent inhibition of tumor growth (% inh) [2, 6]: 118.27%
Antitumor Activity, percent regression of the tumor (% reg) [2, 6]: 100%
Mean Tumor Volume ± SEM [2, 6]: 0.00 ± 0.00 mm^3
Mean Tumor Volume ± SEM ([2]; Group 4: Form A, 11.2 mg/kg i.m. Day 0, 7, 14, Day 28): 23.61 ± 23.61 **^, N.S., $ mm^3
Antitumor Activity, percent inhibition of tumor growth (% inh) [2, 7]: 98.22%
Antitumor Activity, percent regression of the tumor (% reg) [2, 7]: −19.21%
Mean Tumor Volume ± SEM [2, 7]: 180.32 ± 101.25 **^, N.S., $ mm^3
Number of CRs (complete response) [2, 7]: 3/6
Safety and efficacy (in words) ([2]; SU-DHL-10 xenograft tumor model): good safety and efficacy
Aqueous solubility [3]: less than 0.02 mg/mL
Mean Body Weight ± SEM ([4]; Day 21): 21.43 ± 0.35 ^N.S. g
Mean Body Weight ± SEM ([4]; Day 35): 22.65 ± 0.30 ^N.S. g
Body weight decrease (in words) ([4]; each group (Groups 2-4), until day 35): no statistically significant decrease in body weight
Photostability (in words) ([5]; ICH Option 1 irradiation, 26.2 hours): excellent photostability
Description [5, 8]: Purple
Purity % (HPLC) [5, 8]: 99.38%
XRPD [5, 8]: Consistent
Description [5, 9]: Purple
Purity % (HPLC) [5, 9]: 99.29%
Change in the appearance, XRPD and HPLC purity ([5]; after ICH Option 1 irradiation, 26.2 hours): no significant change
